Results as given in publication PMC6218659, “Structures of DPAGT1 Explain Glycosylation Disease Mechanisms and Advance TB Antibiotic Design” (Cell, 2018).
≈ marks a conversion by molar mass, not a printed value. Where two headings read alike, the source gives them in different places.

Experiments:
[1] = target: T1, DPAGT1 (Homo sapiens, UniProt Q9H3H5); experiment: Radiolabeled substrate enzyme activity assay; type: biochemical, H. sapiens; conditions: purified DPAGT1 enzyme, Figure 6F
T1 construct: H. sapiens DPAGT1 (1-408, N-terminal 6 x HIS tag, TEV cleavage site); 6xHis purification tag with TEV site (N, cleaved yes); made in house; host or cells: Spodoptera frugiperda Sf9 insect cells (baculovirus)
T1 sequence (Q9H3H5 1-408): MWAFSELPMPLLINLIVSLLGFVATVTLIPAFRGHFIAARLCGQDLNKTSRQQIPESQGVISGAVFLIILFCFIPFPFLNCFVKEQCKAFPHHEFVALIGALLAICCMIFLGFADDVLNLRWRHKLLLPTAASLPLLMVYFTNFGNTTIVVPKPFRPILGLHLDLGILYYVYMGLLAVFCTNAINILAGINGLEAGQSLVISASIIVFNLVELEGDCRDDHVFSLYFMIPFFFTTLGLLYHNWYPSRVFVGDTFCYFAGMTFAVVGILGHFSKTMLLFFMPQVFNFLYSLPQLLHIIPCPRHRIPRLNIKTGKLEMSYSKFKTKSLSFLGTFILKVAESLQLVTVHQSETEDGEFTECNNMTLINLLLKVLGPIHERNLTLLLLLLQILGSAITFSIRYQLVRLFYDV
Method: 2 μl of 2 μM DPAGT1 WT or mutant proteins in GFB buffer supplemented with 5mM extra MgCl2, 1% OGNG/CHS/cardiolipin and dolichyl monophosphate was combined with 2 μl of UDP-N-acetyl [1-14C] […] The reaction was terminated by the addition of 6 μl of 100% methanol and immediately transferred onto ice. 1 μl of sample was spotted onto a silica coated TLC plate in triplicate and run with a mobile phase consisting of chloroform, methanol, and water at a 65:25:4 ratio respectively. After the run, the TLC plate was dried thoroughly, wrapped in cling film, incubated with a phosphor imaging substrate for 4 days, then phosphor imaged using a Biorad. The pixel density of the spots corresponding to the hydrophobic product was divided by combined pixel density of the product and the substrate and multiplied by the known concentration of substrate added to ascertain the amount of product formed.

[2] = tested on: Mtb H37Rv ATCC27294; experiment: Minimum inhibitory concentrations testing against Mtb; type: cell-based, Mycobacterium tuberculosis; conditions: for MIC: Mycobacterium tuberculosis, 168 h
[3] = tested on: Mtb-infected J774A.1 macrophages; experiment: Efficacy against Mtb growing in infected macrophages; conditions: J774A.1 macrophages treated 3 or 7 days
[4] = tested on: Raji cells; experiment: Cell proliferation assay (MTS); type: cell-based, human; conditions: 24 hrs
Method: (§1) In sterile 96-well plate, each well was seeded with ∼1x10^5 cells. The cells are then grown confluent overnight in 100 μl DMEM with 10% FBS. The medium is replenished with DMEM with 2% FBS and added vehicle control or test substance the next day. For test substance in methanol, stock was added to 25 μl of DMEM with 2% FBS or PBS and placed in the laminar flow hood to let the methanol evaporate (about 1-3 hrs). Once the methanol has evaporated, DMEM with 2% FBS was added to final volume of 100 μl of desired test concentration. […] Cells are grown for additional 24 hrs. The cell viability was determined by using Promega CellTiter 96^© AQueous One Solution Cell Proliferation Assay (3-(4,5-dimethylthiazol-2-yl)-5-(3-carboxymethoxyphenyl)-2-(4-sulfophenyl)-2H-tetrazolium, inner salt; MTS) System following the manufacture protocol.

[5] = tested on: HEK293 cells; experiment: Cell proliferation assay (MTS); type: cell-based, human
Method: as §1

[6] = tested on: HepG2 cells; experiment: Cell proliferation assay (MTS); type: cell-based, human
Method: as §1

[7] = tested on: B. cereus ATCC11778; experiment: Micro-broth dilution and drop plate antimicrobial susceptibility test; type: cell-based, Bacillus cereus
Method: (§2) In a sterile 96-well plate, serial dilutions were made with the test substance to final volume of 50 μl. Inoculum was then prepared in Mueller-Hinton broth to 0.5 McFarland and diluted before adding 50 μl to the well to make ∼1x10^5 CFU/ml. The culture plate was incubated at 35 °C for 20-24 hrs. A positive growth control and sterility wells were also prepared along with the culture wells. Absorbance at OD600 was taken using BMG Labtech SPECTROstar Omega spectrophotometer. MIC is determined by the lowest concentration without growth. IC50 is determined from plotting a dose-response curve, see Data Analysis below. To determine the MBC, using a multi-channel pipette, 1 μl of culture broth was taken from the same 96-well microdilution growth plate and carefully inoculated on surface of MH agar plate. The plate is then incubated for additional 20 hrs. at 35 °C. The MBC value is the lowest concentration without observed growth on the agar.

[8] = tested on: E. coli ATCC25922; experiment: as above; type: cell-based; conditions: Escherichia coli
Method: as §2

[9] = tested on: P. aeruginosa ATCC27853; experiment: as above; type: cell-based; conditions: Pseudomonas aeruginosa
Method: as §2

[10] = tested on: S. aureus ATCC29219; experiment: as above; type: cell-based; conditions: Staphylococcus aureus
Method: as §2

[11] = tested on: B. subtilis EC1524; experiment: as above; type: cell-based, Bacillus subtilis
Method: as §2

[12] = MTS cell proliferation assay, 24 hrs, highest concentration 400 µg mL-1
[13] = serial 2-fold dilutions (Table S6)
[14] = minimal lethal dose / MIC, 800 μg mL-1 used for >400

## CCCCCCCC(=O)N[C@H]1[C@H](O[C@H]2O[C@H](CO)[C@@H](O)[C@H](O)[C@H]2NC(C)=O)O[C@H](C[C@@H](O)[C@H]2O[C@@H](n3ccc(=O)[nH]c3=O)[C@H](O)[C@@H]2O)[C@H](O)[C@@H]1O [TUN-8,Ac, N-Octanoyl-N’-acetyl tunicamycin]
[1]
  effect on DPAGT1 catalytic activity: restored inhibitory activity

## CCCCCCCCC(=O)N[C@H]1[C@H](O[C@H]2O[C@H](CO)[C@@H](O)[C@H](O)[C@H]2NC(=O)CCCCCCCC)O[C@H](C[C@@H](O)[C@H]2O[C@@H](n3ccc(=O)[nH]c3=O)[C@H](O)[C@@H]2O)[C@H](O)[C@@H]1O [TUN-9,9, Di-N-nonanoyl-tunicamycin]
[2]; Mtb H37Rv, minimal growth medium
  1-week MIC in GAST/Fe: 0.03 ± 0.001 µg/mL
[2]; Mtb H37Rv, more potent than tunicamycin
  potency (MIC) relative to tunicamycin: ~5 fold
[2]; read-out: 1-week MIC in 7H9/ADC/Tw
  MIC: 0.2 ± 0.02 µg/mL (≈ 0.236 µM)
[2]; read-out: 1-week MIC in GAST/Fe
  MIC: 0.03 ± 0.001 µg/mL (≈ 0.0354 µM)
[2]; read-out: Minimal Inhibitory Concentration, Mtb H37RV a
  MIC: 0.2 µg/mL (≈ 0.236 µM)
[2]; read-out: Minimal Inhibitory Concentration, Mtb H37RV b
  MIC: 0.03 µg/mL (≈ 0.0354 µM)
[2]; minimal lethal dose / MIC, 7H9/ADC/Tw, 800 μg mL-1 used for >400
  Relative Therapeutic Index (RTI), Mtb H37RV a: 4000
[2]; minimal lethal dose / MIC, GAST/Fe, 800 μg mL-1 used for >400
  Relative Therapeutic Index (RTI), Mtb H37RV b: 27000
[3]; 1 × MIC
  reduction of intracellular bacterial burdens: 1 logs
[3]; 10 × MIC
  reduction of intracellular bacterial burdens: 2 logs
[4]
  LD50 values, Raji: 355.57 ± 194.57 µg/mL
[5]; [12]
  LD50 values, HEK293: N/A (N/A = not available. No or low cytotoxicity observed at highest, saturating concentration tested (400 µg mL-1))
[5]; [13]
  Minimal Lethal Dose, HEK 293: > 400 µg/mL
[6]; [12]
  LD50 values, HepG2: N/A (N/A = not available. No or low cytotoxicity observed at highest, saturating concentration tested (400 µg mL-1))
[6]; [13]
  Minimal Lethal Dose, HepG2: > 400 µg/mL
[7]; Bacillus cereus, ATCC11778
  IC50: 0.072 µg/mL (≈ 0.085 µM)
  MBC: > 25 µg/mL
  MIC: 0.65 ± 0.23 µg/mL (≈ 0.767 µM)
[7]; Bacillus cereus, ATCC 11778 / NRRL11778, read-out: Minimal Inhibitory Concentration, B. cereus NRRL 11778
  MIC: 0.78 µg/mL (≈ 0.921 µM)
[7]; [14]
  Relative Therapeutic Index (RTI), B. cereus NRRL 11778: 1026
[8]
  IC50: 87.1 µg/mL (≈ 103 µM)
  MBC: 400 µg/mL (≈ 472 µM)
  MIC: 330 ± 120 µg/mL (≈ 390 µM)
[9]
  IC50: 55 µg/mL (≈ 64.9 µM)
  MBC: 400 µg/mL (≈ 472 µM)
  MIC: 83 ± 29 µg/mL (≈ 98 µM)
[10]
  IC50: 48.9 µg/mL (≈ 57.8 µM)
  MBC: 400 µg/mL (≈ 472 µM)
  MIC: 83 ± 29 µg/mL (≈ 98 µM)
[11]; B. subtilis, micro-broth dilution, mean ± SEM (n=3)
  MIC: 0.02 ± 0.01 µg/mL (≈ 0.0236 µM)
[11]; Bacillus subtilis, EC1524
  IC50: 0.015 µg/mL (≈ 0.0177 µM)
  MBC: > 0.05 µg/mL
  MIC: 0.02 ± 0.01 µg/mL (≈ 0.0236 µM)
[11]; Bacillus subtilis, EC1524, read-out: Minimal Inhibitory Concentration, B. subtilis EC1524
  MIC: 0.024 µg/mL (≈ 0.0283 µM)
[11]; [14]
  Relative Therapeutic Index (RTI), B. subtilis EC1524: 33300
[1]
  effect on DPAGT1 catalytic activity: negligible effect
